# Reference: patent US12433871B2, “Effects of age-dependent changes in cell size on endothelial cell growth” (The Medical College of Wisconsin, Inc., priority 2019, dated 2025)
# Columns and labels:
# YAP1 [1] = assay: Immunoblot of YAP1S127 phosphorylation in aged human adipose ECs treated with ML141; assay type: cell-based; settings: ML141 500 nM, compared to those without ML141 treatment
# Source text: (§1) FIGS. 3A-3F show CDC42-YAP1 mediates cell size-dependent changes in EC senescence in aged ECs. (FIG. 3A) Representative immunoblots showing YAP1, YAP1S127 phosphorylation, and β-actin protein levels in ECs isolated from >50 y.o. human adipose tissues treated with retrovirus overexpressing full-length YAP1 or YAP1S127A (left). Graph showing the quantification of immunoblots (right, n=3, *, p<0.05). (FIG. 3B) IF micrographs showing P16^INK4A expression and DAPI in ECs isolated from >50 y.o. human adipose tissues treated with retrovirus overexpressing full-length YAP1 or YAP1S127A, cultured on FN-coated island of different sizes. Scale bar, 10 (FIG. 3C) Graph showing quantification of P16^INK4A integrated density (n=7, mean±s.e.m., *, p<0.05). […] Graph showing quantification of GTP-CDC42 integrated density (n=7, mean±s.e.m., *, p<0.05). […] Graph showing the quantification of immunoblots (bottom, n=3, *, p<0.05). […] Scale bar, Graphs showing quantification of P16^INK4A integrated density (bottom left) and nuclear YAP1 (bottom right) (n=7, mean±s.e.m., *, p<0.05).
# (§2) In an in vitro cell culture study human adipose endothelial cells were treated with ML141 (500 nM with DMSO). […] One week later, the gel was removed and analyzed blood vessel formation using immunohistochemical analysis.
# CDC42 = molecular target: T1, CDC42 (Homo sapiens, UniProt P60953); assay: GTP-CDC42 levels by immunofluorescence in aged human adipose ECs treated with ML141; assay type: cell-based; settings: ECs from >50 y.o. human adipose tissues, ML141 500 nM
# T1 construct: endogenous in cells; host or cells: primary endothelial cells isolated from >50 y.o. human adipose tissue
# T1 sequence (P60953 whole entry): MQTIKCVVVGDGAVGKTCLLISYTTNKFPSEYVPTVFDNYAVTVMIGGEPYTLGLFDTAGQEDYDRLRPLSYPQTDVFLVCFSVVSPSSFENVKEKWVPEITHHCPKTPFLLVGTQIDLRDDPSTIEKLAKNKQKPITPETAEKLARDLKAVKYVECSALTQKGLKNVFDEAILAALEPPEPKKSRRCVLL
# Source text: as §1, §2
# [2] = tested on: ECs isolated from >50 y.o. human adipose tissues; assay: EC senescence (p16INK4A staining) in aged ECs cultured on FN-coated microcontact-printed islands; assay type: cell-based; settings: aged ECs on the large island (2500 μm2), ML141 500 nM, compared to those without ML141 treatment
# Description: (§3) In an in vitro cell culture study human adipose endothelial cells were treated with ML141 (500 nM with DMSO). In an in vivo mouse study hydrogel mixed with young or aged human endothelial cells or in combination with ML141 (500 nM with DMSO) was implanted on the back of the immunocompromised mouse. One week later, the gel was removed and analyzed blood vessel formation using immunohistochemical analysis.
# EC proliferation was analyzed by a BrdU incorporation assay or a Click-iT® Plus EdU Proliferation Assay. Mouse lung and human adipose ECs were plated in EBM2 with 2% serum, pulsed with 5 μM BrdU for 16 h, immunostained and imaged using a confocal Leica SP5 microscope. Cellular senescence was characterized using a SA-β galactosidase assay kit (cell signaling) or anti-P16^INK4A staining. The specificity of P16^INK4A staining was confirmed by 2nd Ab alone staining (Supplementary FIG. 1D). The microscopic images were analyzed on at least five images using imageJ software (NIH) and the same contrast and brightness were used to compare the images.
# (§4) Microcontact printing system—Stamps were created using soft lithography as described previously. Polydimethylsiloxane (PDMS) stamps were made by casting the polymer against master molds made by standard photolithography using the negative photoresist SU-8 (MicroChem). […]
# YAP1 [3] = assay: YAP1 nuclear localization in aged ECs cultured on FN-coated microcontact-printed islands; assay type: cell-based, human; settings: aged ECs on the large island (2500 μm2), ML141 500 nM, compared to those without ML141 treatment
# Description: To directly analyze whether EC size controls YAP1 activity, we prepared microcontact-printed substrates consisting of square FN-coated islands (600-2500 μm2) surrounded by non-adhesive regions, in which we directly stamped FN (50 μg/ml) onto activated polydimethylsiloxane-coated cover slips and blocked unstamped areas with Pluronic F-127 [49, 50]. […] In contrast, when we cultured 24M old mouse lung ECs on the large islands, YAP1 was excluded from the nucleus, while YAP1 was in the nucleus on the medium size islands (FIGS. 6D and 6E).
# as §3
# as §4, with “(MicroChem). Substrates for stamping were fabricated by spin-coating a thin layer of PDMS (Sylgard-184, Dow Corning) onto glass coverslips.” for “(MicroChem).”
# aged human adipose ECs = assay: Mouse subcutaneous fibrin gel implantation (blood vessel formation and dextran leakage); assay type: in vivo, NSG mouse
# Description: as §3
# Mouse subcutaneous fibrin gel implantation—The in vivo animal study was carried out in strict accordance with the recommendations in the Guide for the Care and Use of Laboratory Animals of the National Institutes of Health. The protocol was reviewed and approved by the Animal Care and Use Committee of Medical College of Wisconsin. NOD scid gamma (NSG) mice (8 week old; Jackson Laboratory) and C57BL6 mice (Jackson Laboratory and NIA/NIH rodent colonies) were used for the study. Fibrin gel was fabricated as described. […] Vascular network formation of GFP-labeled human adipose ECs was evaluated by measuring the area and length of GFP-labeled blood vessels from five different areas of the gel. The vascular permeability was measured using low MW fluorescently labeled dextran (MW 4000, Sigma) leakage. […]
smiles,measurement,setting,value
COc1ccc(C2CC(c3ccccc3)=NN2c2ccc(S(N)(=O)=O)cc2)cc1 (stereo not drawn) [ML141],decrease in YAP1S127 phosphorylation,YAP1 [1],72%
same,CDC42 activity (GTP-CDC42 integrated density),CDC42,Inhibition of CDC42 activity
same,"intensity of senescence marker p16INK4A, lower",[2],45%
same,"levels of nuclear YAP1, times higher",YAP1 [3],1.2 times
same,"aged EC-derived blood vessel length, times longer","aged human adipose ECs; fibrin gel with aged human adipose ECs, ML141 500 nM in gel, subcutaneous in NSG mouse, 7 days",2.5 times
same,leakage of fluorescently labeled dextran in the gel,"aged human adipose ECs; gel with aged ECs, ML141 500 nM, dextran by systemic injection",attenuated the leakage of dextran
